Measurements as given in US20240101540A1, “TARGETED PROTEIN DEGRADATION OF PARP14 FOR USE IN THERAPY” (Ribon Therapeutics, Inc., priority 2022, published 2024).
Where a name gives a salt, the structure may show the parent alone.

Target: T1, catalytic domain of human PARP14 (residues 1611 to 1801) with NanoLuc tag (Homo sapiens, UniProt Q460N5)
T1 construct: expressed in transfected cells; host or cells: HEK-293T cells (ATCC), pcDNA3.1(-) vector
T1 sequence (Q460N5 1611-1801): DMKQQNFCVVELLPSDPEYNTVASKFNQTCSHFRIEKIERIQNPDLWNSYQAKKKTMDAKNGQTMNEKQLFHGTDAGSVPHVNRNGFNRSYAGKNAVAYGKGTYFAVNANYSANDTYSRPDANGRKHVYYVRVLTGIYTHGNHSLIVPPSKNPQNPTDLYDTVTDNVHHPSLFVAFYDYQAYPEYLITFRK
Assay: NanoLuc assay for the degradation of PARP14 (NanoLuc-tagged PARP14 overexpressed in HEK-293T cells, 2 hours)
Type: cell-based
Conditions: Assay A (Example A): NanoLuc-tagged PARP14 degradation in HEK-293T cells, read-out: DC50

| SMILES | DC50 |
| --- | --- |
| O=C1CCC(Oc2ccc(N3CCN(CCN4CCC(COc5cc(F)c6c(=O)[nH]c(CSC7CCOCC7)nc6c5)CC4)CC3)cc2)C(=O)N1 (centres unmarked) [Example 65, 3-(4-(4-(2-(4-(((5-fluoro-4-oxo-2-(((tetrahydro-2H-pyran-4-yl)thio)methyl)-3,4-dihydroquinazolin-7-yl)oxy)methyl)piperidin-1-yl)ethyl)piperazin-1-yl)phenoxy)piperidine-2,6-dione] | < 100 nM |
| CN(c1ccc(N2CCN(CCN3CCC(COc4cc(F)c5c(=O)[nH]c(CSC6CCOCC6)nc5c4)CC3)CC2)cc1)C1CCC(=O)NC1=O (centres unmarked) [Example 66, 3-((4-(4-(2-(4-(((5-fluoro-4-oxo-2-(((tetrahydro-2H-pyran-4-yl)thio)methyl)-3,4-dihydroquinazolin-7-yl)oxy)methyl)piperidin-1-yl)ethyl)piperazin-1-yl)phenyl)(methyl)amino)piperidine-2,6-dione] | < 100 nM |
| O=C1CCC(Nc2cccc(C3CCN(CCN4CCC(COc5cc(F)c6c(=O)[nH]c(CSC7CCOCC7)nc6c5)CC4)CC3)c2)C(=O)N1 (centres unmarked) [Example 67, 3-((3-(1-(2-(4-(((5-fluoro-4-oxo-2-(((tetrahydro-2H-pyran-4-yl)thio)methyl)-3,4-dihydroquinazolin-7-yl)oxy)methyl)piperidin-1-yl)ethyl)piperidin-4-yl)phenyl)amino)piperidine-2,6-dione] | < 100 nM |
| O=C1CCC(Nc2ccc(N3CCN(CCN4CCC(COc5cc(F)c6c(=O)[nH]c(COC7CCOCC7)nc6c5)CC4)CC3)cc2)C(=O)N1 (centres unmarked) [Example 68, 3-((4-(4-(2-(4-(((5-fluoro-4-oxo-2-(((tetrahydro-2H-pyran-4-yl)oxy)methyl)-3,4-dihydroquinazolin-7-yl)oxy)methyl)piperidin-1-yl)ethyl)piperazin-1-yl)phenyl)amino)piperidine-2,6-dione] | < 100 nM |
| O=C1CCC(Nc2ccc(N3CCN(CCN4CCC(COc5cc(F)c6c(=O)[nH]c(CSC7CCOCC7)nc6c5)CC4)CC3)nc2)C(=O)N1 (centres unmarked) [Example 69, 3-((6-(4-(2-(4-(((5-fluoro-4-oxo-2-(((tetrahydro-2H-pyran-4-yl)thio)methyl)-3,4-dihydroquinazolin-7-yl)oxy)methyl)piperidin-1-yl)ethyl)piperazin-1-yl)pyridin-3-yl)amino)piperidine-2,6-dione] | < 100 nM |
| O=C1CCN(c2ccc(N3CCN(CCN4CCC(COc5cc(F)c6c(=O)[nH]c(CSC7CCOCC7)nc6c5)CC4)CC3)cc2)C(=O)N1 [Example 70, 1-(4-(4-(2-(4-(((5-fluoro-4-oxo-2-(((tetrahydro-2H-pyran-4-yl)thio)methyl)-3,4-dihydroquinazolin-7-yl)oxy)methyl)piperidin-1-yl)ethyl)piperazin-1-yl)phenyl)dihydropyrimidine-2,4(1H,3H)-dione] | < 100 nM |
| O=C1CCC(Nc2ccc(N3C4CC3CN(CCN3CCC(COc5cc(F)c6c(=O)[nH]c(CSC7CCOCC7)nc6c5)CC3)C4)cc2)C(=O)N1 (centres unmarked) [Example 71, 3-((4-(3-(2-(4-(((5-fluoro-4-oxo-2-(((tetrahydro-2H-pyran-4-yl)thio)methyl)-3,4-dihydroquinazolin-7-yl)oxy)methyl)piperidin-1-yl)ethyl)-3,6-diazabicyclo[3.1.1]heptan-6-yl)phenyl)amino)piperidine-2,6-dione] | < 100 nM |
| O=C1CCC(N2C(=O)c3ccc(C#CC4CCN(CCN5CCC(COc6cc(F)c7c(=O)[nH]c(CSC8CCOCC8)nc7c6)CC5)CC4)cc3C2=O)C(=O)N1 (centres unmarked) [Example 72, 2-(2,6-dioxopiperidin-3-yl)-5-((1-(2-(4-(((5-fluoro-4-oxo-2-(((tetrahydro-2H-pyran-4-yl)thio)methyl)-3,4-dihydroquinazolin-7-yl)oxy)methyl)piperidin-1-yl)ethyl)piperidin-4-yl)ethynyl)isoindoline-1,3-dione] | < 100 nM |
| O=C1CCC(Nc2ccc(N3CC4CC(C3)N4CCN3CCC(COc4cc(F)c5c(=O)[nH]c(CSC6CCOCC6)nc5c4)CC3)cc2)C(=O)N1 (centres unmarked) [Example 73, 3-((4-(6-(2-(4-(((5-fluoro-4-oxo-2-(((tetrahydro-2H-pyran-4-yl)thio)methyl)-3,4-dihydroquinazolin-7-yl)oxy)methyl)piperidin-1-yl)ethyl)-3,6-diazabicyclo[3.1.1]heptan-3-yl)phenyl)amino)piperidine-2,6-dione] | < 100 nM |
| Cn1nc(N2CCC(=O)NC2=O)c2ccc(C3CCN(CCN4CCC(COc5cc(F)c6c(=O)[nH]c(CSC7CCOCC7)nc6c5)CC4)CC3)cc21 [Example 74, 1-(6-(1-(2-(4-(((5-fluoro-4-oxo-2-(((tetrahydro-2H-pyran-4-yl)thio)methyl)-3,4-dihydroquinazolin-7-yl)oxy)methyl)piperidin-1-yl)ethyl)piperidin-4-yl)-1-methyl-1H-indazol-3-yl)dihydropyrimidine-2,4(1H,3H)-dione] | < 100 nM |

Other lines, results leading:

| DC50 | SMILES |
| --- | --- |
| < 100 nM | O=C1CCC(Nc2ccc(N3CC(N4CCC(COc5cc(F)c6c(=O)[nH]c(CSC7CCOCC7)nc6c5)CC4)C3)cc2)C(=O)N1 (centres unmarked) [Example 51, 3-((4-(3-(4-(((5-fluoro-4-oxo-2-(((tetrahydro-2H-pyran-4-yl)thio)methyl)-3,4-dihydroquinazolin-7-yl)oxy)methyl)piperidin-1-yl)azetidin-1-yl)phenyl)amino)piperidine-2,6-dione] |
| < 100 nM | O=C1CCC(Nc2ccc(N3CC(N4CCC(COc5cc(F)c6c(=O)[nH]c(CSC7CCOCC7)nc6c5)C(F)(F)C4)C3)cc2)C(=O)N1 (centres unmarked) [Example 52, 3-((4-(3-(3,3-difluoro-4-(((5-fluoro-4-oxo-2-(((tetrahydro-2H-pyran-4-yl)thio)methyl)-3,4-dihydroquinazolin-7-yl)oxy)methyl)piperidin-1-yl)azetidin-1-yl)phenyl)amino)piperidine-2,6-dione formate salt] |
| < 100 nM | O=C1CCC(Nc2ccc(N3CC(CN4CCC(COc5cc(F)c6c(=O)[nH]c(CSC7CCOCC7)nc6c5)CC4)C3)cc2)C(=O)N1 (centres unmarked) [Example 53, 3-((4-(3-((4-(((5-fluoro-4-oxo-2-(((tetrahydro-2H-pyran-4-yl)thio)methyl)-3,4-dihydroquinazolin-7-yl)oxy)methyl)piperidin-1-yl)methyl)azetidin-1-yl)phenyl)amino)piperidine-2,6-dione] |
| < 100 nM | O=C1CCN(c2cccc(N3CC(CN4CCC(COc5cc(F)c6c(=O)[nH]c(CSC7CCOCC7)nc6c5)CC4)C3)c2)C(=O)N1 [Example 54, 1-(3-(3-((4-(((5-fluoro-4-oxo-2-(((tetrahydro-2H-pyran-4-yl)thio)methyl)-3,4-dihydroquinazolin-7-yl)oxy)methyl)piperidin-1-yl)methyl)azetidin-1-yl)phenyl)dihydropyrimidine-2,4(1H,3H)-dione formate salt] |
| < 100 nM | O=C1CCC(Nc2ccc(OCCN3CCC(COc4cc(F)c5c(=O)[nH]c(CSC6CCOCC6)nc5c4)CC3)cc2)C(=O)N1 (centres unmarked) [Example 58, 3-((4-(2-(4-(((5-fluoro-4-oxo-2-(((tetrahydro-2H-pyran-4-yl)thio)methyl)-3,4-dihydroquinazolin-7-yl)oxy)methyl)piperidin-1-yl)ethoxy)phenyl)amino)piperidine-2,6-dione] |
| < 100 nM | O=C1CCC(N2Cc3cc(N4CCN(CCN5CCC(COc6cc(F)c7c(=O)[nH]c(CSC8CCOCC8)nc7c6)CC5)CC4)ccc3C2=O)C(=O)N1 (centres unmarked) [Example 59, 3-(5-(4-(2-(4-(((5-fluoro-4-oxo-2-(((tetrahydro-2H-pyran-4-yl)thio)methyl)-3,4-dihydroquinazolin-7-yl)oxy)methyl)piperidin-1-yl)ethyl)piperazin-1-yl)-1-oxoisoindolin-2-yl)piperidine-2,6-dione] |
| < 100 nM | O=C1CCC(N2Cc3c(cccc3N3CCN(CCN4CCC(COc5cc(F)c6c(=O)[nH]c(CSC7CCOCC7)nc6c5)CC4)CC3)C2=O)C(=O)N1 (centres unmarked) [Example 60, 3-(4-(4-(2-(4-(((5-fluoro-4-oxo-2-(((tetrahydro-2H-pyran-4-yl)thio)methyl)-3,4-dihydroquinazolin-7-yl)oxy)methyl)piperidin-1-yl)ethyl)piperazin-1-yl)-1-oxoisoindolin-2-yl)piperidine-2,6-dione] |
| < 100 nM | O=C1CCC(N2C(=O)c3cccc(N4CCN(CCN5CCC(COc6cc(F)c7c(=O)[nH]c(CSC8CCOCC8)nc7c6)CC5)CC4)c3C2=O)C(=O)N1 (centres unmarked) [Example 61, 2-(2,6-dioxopiperidin-3-yl)-4-(4-(2-(4-(((5-fluoro-4-oxo-2-(((tetrahydro-2H-pyran-4-yl)thio)methyl)-3,4-dihydroquinazolin-7-yl)oxy)methyl)piperidin-1-yl)ethyl)piperazin-1-yl)isoindoline-1,3-dione] |
| < 100 nM | O=C1CCC(N2C(=O)c3ccc(N4CCN(CCN5CCC(COc6cc(F)c7c(=O)[nH]c(CSC8CCOCC8)nc7c6)CC5)CC4)cc3C2=O)C(=O)N1 (centres unmarked) [Example 62, 2-(2,6-dioxopiperidin-3-yl)-5-(4-(2-(4-(((5-fluoro-4-oxo-2-(((tetrahydro-2H-pyran-4-yl)thio)methyl)-3,4-dihydroquinazolin-7-yl)oxy)methyl)piperidin-1-yl)ethyl)piperazin-1-yl)isoindoline-1,3-dione] |
| < 100 nM | O=C1CCC(Nc2cccc(N3CCN(CCN4CCC(COc5cc(F)c6c(=O)[nH]c(CSC7CCOCC7)nc6c5)CC4)CC3)c2)C(=O)N1 (centres unmarked) [Example 63, 3-((3-(4-(2-(4-(((5-fluoro-4-oxo-2-(((tetrahydro-2H-pyran-4-yl)thio)methyl)-3,4-dihydroquinazolin-7-yl)oxy)methyl)piperidin-1-yl)ethyl)piperazin-1-yl)phenyl)amino)piperidine-2,6-dione] |
